Where two headings read alike, the source gives them in different places.
Columns and labels:
[1] = system: H23 cells; test: H23 Cellular Proliferation Assay (CellTiter-Glo); assay type: cell-based; conditions: Homo sapiens, NCI-H23, 96 h, 4 days, read-out: H23 CTG IC50
Description: H23 Cellular Proliferation Assay
Cells were treated with compounds diluted in DMSO and a 9 point 5-fold serial dilutions. Plates were placed in 37° C., 5% CO2 for to incubate for 4 days. Before they were developed by adding 100 μL of CellTiter-Glo reagent (Promega) to the assay plate, plates were shaken briefly for 2 mins and allowed to incubate at rt for 10 mins. The plates are read with a M5e plate reader according to CellTiter-Glo protocol. The GraphPad Prism software is used to get IC50 values.

[2] = molecular target: Wee1 kinase (Homo sapiens, UniProt P30291); test: Wee1 Binding Assay (FRET)
Sequence of Wee1 kinase (P30291 whole entry): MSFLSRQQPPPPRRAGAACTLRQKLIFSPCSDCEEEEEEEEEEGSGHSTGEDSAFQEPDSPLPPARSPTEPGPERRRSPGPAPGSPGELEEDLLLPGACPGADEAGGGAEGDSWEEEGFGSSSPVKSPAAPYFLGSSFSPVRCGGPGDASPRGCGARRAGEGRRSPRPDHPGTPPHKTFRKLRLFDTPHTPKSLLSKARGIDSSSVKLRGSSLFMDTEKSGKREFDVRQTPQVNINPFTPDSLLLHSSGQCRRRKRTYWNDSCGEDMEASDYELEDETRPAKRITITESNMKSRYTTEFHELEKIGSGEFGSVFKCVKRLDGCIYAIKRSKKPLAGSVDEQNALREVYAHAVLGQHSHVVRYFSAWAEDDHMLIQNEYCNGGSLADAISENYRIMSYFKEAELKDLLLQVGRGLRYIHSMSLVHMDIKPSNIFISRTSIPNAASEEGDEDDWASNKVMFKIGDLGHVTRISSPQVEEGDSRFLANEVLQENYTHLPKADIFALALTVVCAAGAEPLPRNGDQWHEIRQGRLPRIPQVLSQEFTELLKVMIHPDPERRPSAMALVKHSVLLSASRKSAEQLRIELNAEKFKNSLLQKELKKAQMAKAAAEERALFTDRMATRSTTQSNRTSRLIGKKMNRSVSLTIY
Description: Wee 1 kinase was determined by using Fluorescence Resonance Energy Transfer (FRET) assay. […] The plate was shaken for 30 seconds, incubated for 60 min at RT, and recorded on fluorescence plate reader.

[3] = FRET, Wee1 kinase 2 nM, tracer 178 50 nM, 60 min at RT, read-out: Wee1 enzymatic IC50

Compound	IC50 [1] [nM]	IC50 [2, 3] [nM]	IC50 [2] [nM]
C=CCn1c(=O)c2cnc(Nc3ccc(N4CCN(C)CC4)cc3)nc2n1-c1cnc2c(c1)[C@](C)(O)CO2 (single isomer, unassigned) [Example 35B]	> 1000	10 to 100	
C=CCn1c(=O)c2cnc(Nc3ccc4c(c3)CNCC43CC3)nc2n1-c1ccc2c(n1)[C@](O)(C(F)(F)F)CC2 (single isomer, unassigned) [Example 30A]	100 to 1000		< 10
C=CCn1c(=O)c2cnc(Nc3ccc(N4CCN(C)CC4)cc3)nc2n1-c1ccc2c(n1)[C@@](C)(O)CCC2 (single isomer, unassigned) [Example 25A]	100 to 1000		< 10
C=CCn1c(=O)c2cnc(Nc3ccc(N4CCN(C)CC4)c(C)c3)nc2n1-c1ccc2c(n1)[C@](C)(O)CCC2 (single isomer, unassigned) [Example 27B]	100 to 1000	< 10	
C=CCn1c(=O)c2cnc(Nc3ccc(N4CCN(C)CC4)cc3)nc2n1-c1ccc2c(n1)[C@@](O)(CC)CC2 (single isomer, unassigned) [Example 9B]	100 to 1000		< 10
C=CCn1c(=O)c2cnc(Nc3ccc(N4CCN(C)CC4)cc3)nc2n1-c1ccc2c(n1)[C@@H](O)CC2 (single isomer, unassigned) [Example 1A]	> 1000		< 10
C=CCn1c(=O)c2cnc(Nc3ccc(N4CCN(C)CC4)cc3)nc2n1-c1cnc2c(c1)[C@@](C)(O)CO2 (single isomer, unassigned) [Example 35A, 2-allyl-1-(3-hydroxy-3-methyl-2,3-dihydrofuro[2,3-b]pyridin-5-yl)-6-((4-(4-methylpiperazin-1-yl)phenyl)amino)-1,2-dihydro-3H-pyrazolo[3,4-d]pyrimidin-3-one]	> 1000	10 to 100	
C=CCn1c(=O)c2cnc(Nc3ccc(N4CCN(C)CC4)cc3)nc2n1-c1ccc2c(n1)[C@@](C)(O)CC2 (single isomer, unassigned) [Example 2A]	> 1000		< 10
C=CCn1c(=O)c2cnc(Nc3ccc(N4CCN(C)CC4)cc3)nc2n1-c1ccc2c(c1)[C@](C)(O)CC2 (single isomer, unassigned) [Example 21B]	100 to 1000		< 10
C=CCn1c(=O)c2cnc(Nc3ccc(N4CCN(C)CC4)cc3)nc2n1-c1ccc2c(n1)[C@](O)(CC)CC2 (single isomer, unassigned) [Example 9A]	100 to 1000		< 10
C=CCn1c(=O)c2cnc(Nc3ccc(N4CCN(C)CC4)cc3)nc2n1-c1cn2c(n1)[C@](C)(O)CC2 (single isomer, unassigned) [Example 36B]	> 1000	> 100	
C=CCn1c(=O)c2cnc(Nc3ccc(N4CCN(C)CC4)c(C)c3)nc2n1-c1ccc2c(n1)[C@](C)(O)CC2 (single isomer, unassigned) [Example 10B]	100 to 1000		< 10
C=CCn1c(=O)c2cnc(Nc3ccc(N4CCN(C)CC4)cc3)nc2n1-c1ccc2c(n1)[C@@](O)(C1CC1)CC2 (single isomer, unassigned) [Example 16B]	100 to 1000		< 10
C=CCn1c(=O)c2cnc(Nc3ccc(N4CCN(C)CC4)cc3)nc2n1-c1ccc2c(c1)[C@](O)(CC)CC2 (single isomer, unassigned) [Example 22A]	> 1000	10 to 100	
C=CCn1c(=O)c2cnc(Nc3ccc(N4CCN(C)CC4)c(F)c3)nc2n1-c1ccc2c(n1)[C@](C)(O)CC2 (single isomer, unassigned) [Example 11B]	100 to 1000	< 10	
C=CCn1c(=O)c2cnc(Nc3ccc(N4CCN(C)CC4)cc3)nc2n1-c1ccc2c(n1)[C@](O)(C(F)(F)F)CC2 (single isomer, unassigned) [Example 3A]	> 1000		< 10

Compound	IC50 [1] [nM]	IC50 [2, 3] [nM]	IC50 [2] [nM]
C=CCn1c(=O)c2cnc(Nc3ccc(N4CCN(C)CC4)c(C)c3)nc2n1-c1ccc2c(n1)[C@@](C)(O)CC2 (single isomer, unassigned) [Example 10A]	100 to 1000		< 10
C=CCn1c(=O)c2cnc(Nc3ccc(N4CCN(C)CC4)cc3)nc2n1-c1ccc2c(n1)C(=O)N(C)C2 [Example 33, 2-allyl-1-(6-methyl-7-oxo-6,7-dihydro-5H-pyrrolo[3,4-b]pyridin-2-yl)-6-((4-(4-methylpiperazin-1-yl)phenyl)amino)-1,2-dihydro-3H-pyrazolo[3,4-d]pyrimidin-3-one]	> 1000	10 to 100	
C=CCn1c(=O)c2cnc(Nc3ccc(N4CCN(C)CC4)cc3)nc2n1-c1ccc2c(n1)[C@](C)(O)CC2 (single isomer, unassigned) [Example 2B]	100 to 1000		< 10
C=CCn1c(=O)c2cnc(Nc3ccc(N4CCN(C)CC4)cc3)nc2n1-c1ccc2c(n1)[C@@](O)(C(F)F)CC2 (single isomer, unassigned) [Example 15B]	100 to 1000		< 10
C=CCn1c(=O)c2cnc(Nc3ccc(N4CCN(C)CC4)cc3)nc2n1-c1ccc2c(c1)[C@@](C)(O)CC2 (single isomer, unassigned) [Example 21A]	> 1000		< 10
C=CCn1c(=O)c2cnc(Nc3ccc(N4CCNCC4)cc3)nc2n1-c1ccc2c(n1)C(F)(F)CC2 [Example 7, 2-Allyl-1-(7,7-difluoro-6,7-dihydro-5H-cyclopenta[b]pyridin-2-yl)-6-((4-(piperazin-1-yl)phenyl)amino)-1,2-dihydro-3H-pyrazolo[3,4-d]pyrimidin-3-one]	> 1000	< 10	
C=CCn1c(=O)c2cnc(Nc3ccc(N4CCN(C)CC4)cc3)nc2n1-c1ccc2c(n1)[C@@](O)(CC)CCC2 (single isomer, unassigned) [Example 26B]	< 100		< 10
C=CCn1c(=O)c2cnc(Nc3ccc(N4CCN(C)CC4)cc3)nc2n1-c1cn2c(n1)[C@@](C)(O)CC2 (single isomer, unassigned) [Example 36A]	> 1000	10 to 100	
C=CCn1c(=O)c2cnc(Nc3ccc(N4CCN(C)CC4)c(C)c3)nc2n1-c1ccc2c(n1)[C@@](O)(CC)CC2 (single isomer, unassigned) [Example 12B]	< 100		< 10
C=CCn1c(=O)c2cnc(Nc3ccc4c(c3)CNCC43CC3)nc2n1-c1ccc2c(n1)[C@@](O)(C(F)(F)F)CC2 (single isomer, unassigned) [Example 30B]	100 to 1000		< 10
C=CCn1c(=O)c2cnc(Nc3ccc(N4CCN(C)CC4)cc3)nc2n1-c1ccc2c(n1)[C@](O)(C(F)F)CC2 (single isomer, unassigned) [Example 15A]	> 1000		< 10
C=CCn1c(=O)c2cnc(Nc3ccc(N4CCN(C)CC4)cc3)nc2n1-c1ccc2c(n1)[C@](C)(O)CO2 (single isomer, unassigned) [Example 4B]	> 1000		< 10
C=CCn1c(=O)c2cnc(Nc3ccc(N4CCN(C)CC4)cc3)nc2n1-c1ccc2c(n1)[C@@](O)(C(F)(F)F)CC2 (single isomer, unassigned) [Example 3B]	100 to 1000		< 10
C=CCn1c(=O)c2cnc(Nc3ccc(N4CCN(C)CC4)cc3)nc2n1-c1cn2c(n1)COCC2 [Example 32, 2-allyl-1-(5,6-dihydro-8H-imidazo[2,1-c][1,4]oxazin-2-yl)-6-((4-(4-methylpiperazin-1-yl)phenyl)amino)-1,2-dihydro-3H-pyrazolo[3,4-d]pyrimidin-3-one]	> 1000	10 to 100	
C=CCn1c(=O)c2cnc(Nc3ccc(N4CCN(C)CC4)cc3)nc2n1-c1ccc2c(n1)[C@](O)(CC)CCC2 (single isomer, unassigned) [Example 26A]	> 1000		< 10
